Assay results published in patent US20210213010A1, “TLR7/8 AGONISTS AND LIPOSOME COMPOSITIONS” (Torque Therapeutics, Inc., priority 2018, published 2021).
Values joined by “and” are separate entries in the source; they are usually repeats but may differ in a detail not shown here. Equal values may be shown once.

How the values were obtained:
[1] = Remote loading efficiency of small molecules into liposomes (PD-10 size exclusion, HPLC); type: physicochemical; conditions: mean (SD), n = 2
Description: A solution of the small molecule (modified TLR agonist) was lyophilized in a vial equipped with a magnetic stir bar over night to form a fluffy white powder. This powder was added either formulation F1 or F2 to the wanted drug/lipid ratio. The resulting mixture was stirred at 55° C. or 41° C. for formulation F1 and F2 respectively for 3h, then allowed to cool to rt before the solutions were refrigerated and stored at 4° C.
Remote loading efficiency was determined at 1 h and 3 h by taking out 100 μL of the mixture and applying this and 900 μL buffer (25 mM HEPES, 10 vol % sucrose buffer, pH 7.4) to a PD-10 column size exclusion column. Following, 10×1 mL fractions were collected, and the small molecule compound concentrations in the loading mixture and in the liposome containing fractions were determined on analytical HPLC. Loading efficiency was calculated as percentage of molecules found in liposome containing fractions out of the applied amount. The general procedure for the small molecule remote loading is visualized in FIG. 3. The general concept of remote loading imidazoquinolines in liposomes that are dialyzed against HEPES is visualized in FIG. 4.

[2] = target: T1, mTLR7 (Mus musculus, UniProt P58681); test: NF-κB induction in HEK-Blue mTLR7 reporter cells; type: cell-based; conditions: free compounds, 16 h
T1 construct: host or cells: HEK-Blue (HEK293-derived) reporter cells
T1 sequence (P58681 27-1050): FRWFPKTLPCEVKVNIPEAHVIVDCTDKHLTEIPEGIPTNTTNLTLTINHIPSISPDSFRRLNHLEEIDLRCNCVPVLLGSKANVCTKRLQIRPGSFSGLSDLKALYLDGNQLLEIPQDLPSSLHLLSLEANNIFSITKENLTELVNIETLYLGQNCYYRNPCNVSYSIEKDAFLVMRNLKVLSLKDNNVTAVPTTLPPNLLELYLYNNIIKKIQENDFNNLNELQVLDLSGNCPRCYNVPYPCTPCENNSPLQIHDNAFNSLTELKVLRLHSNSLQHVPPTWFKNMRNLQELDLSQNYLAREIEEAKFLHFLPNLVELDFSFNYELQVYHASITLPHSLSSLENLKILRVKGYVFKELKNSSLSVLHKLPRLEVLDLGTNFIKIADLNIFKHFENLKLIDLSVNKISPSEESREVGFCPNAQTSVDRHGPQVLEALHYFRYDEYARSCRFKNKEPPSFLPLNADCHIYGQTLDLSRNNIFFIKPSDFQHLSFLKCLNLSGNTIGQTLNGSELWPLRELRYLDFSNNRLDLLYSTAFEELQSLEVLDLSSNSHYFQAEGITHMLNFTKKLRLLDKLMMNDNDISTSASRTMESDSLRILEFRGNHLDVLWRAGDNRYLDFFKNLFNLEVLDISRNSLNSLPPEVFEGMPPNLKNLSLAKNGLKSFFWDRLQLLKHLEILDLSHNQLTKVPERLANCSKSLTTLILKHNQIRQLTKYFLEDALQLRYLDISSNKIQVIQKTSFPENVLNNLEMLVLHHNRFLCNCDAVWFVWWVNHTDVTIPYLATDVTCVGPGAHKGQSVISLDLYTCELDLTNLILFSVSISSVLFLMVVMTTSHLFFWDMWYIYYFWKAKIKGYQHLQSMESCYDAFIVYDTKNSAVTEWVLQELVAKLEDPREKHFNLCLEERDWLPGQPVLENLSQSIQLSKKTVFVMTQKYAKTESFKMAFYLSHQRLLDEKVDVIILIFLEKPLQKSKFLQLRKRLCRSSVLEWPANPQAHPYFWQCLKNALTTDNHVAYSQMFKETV
Text: This example describes the general procedure used to assess the compounds' potency to induce NF-κB expression in human embryonic kidney (HEK) cells. The transcription factor NF-κB is expressed upon stimulation of TLR7/8 and is commonly used for quantifying TLR7/8 agonist potencies in reporter cell assays. Conversely, we used HEK-Blue mTLR-7 cells to evaluate the potencies of the synthesized derivatives, as previously reported (Shukla et al, J. Med. Chem. (2010), 53, 4450-4465).
HEK-Blue TLR7 assays were carried out using HEK-Blue™ mTLR7 cells (Invivogen, Toulouse, France, Cat. #hkb-mtlr7). The assays were carried out according to the protocol from Invivogen. TLR expressing cells were cultured in DMEM high glucose (4.5 g/L) supplemented with 10% (v/v) fetal bovine serum (FBS) and 1% (v/v) penicillin-streptomycin (P/S) to 50 U/ml penicillin and […] streptomycin. On the day of the study, the cells were seeded in a 96-well plate (ThermoFisher Scientific, Roskilde, Denmark) with 20 μL imidazoquinoline TLR7/8 agonist solutions per well at varying concentrations by adding 180 μL cell suspension, made by suspending cells to 0.22×10^6 cells per mL in HEK-Blue™ Detection medium (Invivogen, Cat. #hb-det2) added Blasticidin (10 μg/ml) and Zeocin™ (100 μg/ml), leading to a final concentration of 40×10^3 cells per well in triplicates. Cells were incubated with the imidazoquinoline TLR7/8 agonists, formulated in liposomes or dissolved in PBS, at 37° C. with 5% CO2 for 16 h. The response was quantified spectrophotometrically at 655 nm and was normalized to the signal from a blank sample (DMSO dilution) run in parallel.

[3] = tested on: RAW-Blue cells; test: NF-κB induction in RAW-Blue reporter cells (RAW 264.7 macrophages, SEAP); type: cell-based; conditions: for EC50: RAW-Blue, sigmoidal 4PL fitting, 24 h; for Potency in the RAW-Blue cell assay: compared with R848
Text: This example describes the general procedure used to assess the compounds' potency to induce NF-κB expression in RAW 264.7 macrophages cells that stably express secreted embryonic alkaline phosphatase (SEAP) upon induction of NF-κB. RAW-Blue™ reporter cells are commonly used for quantifying TLR7/8 agonist potencies in reporter cell assays. Conversely, we used RAW-Blue™ cells to evaluate the potencies of the synthesized derivatives, as previously reported^1. ^1 Ryu et al, J. Am. Chem. Soc. (2014), 136, 10823-10825
RAW 264.7 assays were carried out using RAW-Blue™ cells and QUANTI-Blue™ detection solution (Invivogen, Toulouse, France, at. #raw-sp and rep-qbs respectively). The assays carried out according to the protocol from Invivogen. RAW 264.7 macrophages were cultured in DMEM high glucose (4.5 g/L) supplemented with 10% (v/v) FBS, 1% (v/v) P/S, and Normocin™ (100 μg/ml). On the day of the study, the cells were seeded in a 96-well plate (ThermoFisher Scientific, Roskilde, Denmark) with 20 μL TLR7/8 agonist solutions per well at varying concentrations by adding 180 μL cell suspension, made by suspending cells to 0.55×10^6 cells per mL in the prepared cell medium added Zeocin™ (200 μg/ml), leading to a final concentration of 100×10^3 cells per well in triplicates. Cells were incubated with the TLR7/8 agonists, diluted from 10 mM DMSO stocks in PBS, at 37° C. with 5% CO2 for 24 h for SEAP production. 50 μL SEAP containing cell supernatant from each well was added 150 μL QUANTI-Blue™ detection solution and was incubated at 37° C. for 3-6 h. The resulting response was quantified spectrophotometrically at 640 nm and was normalized to the signal from a blank sample (DMSO dilution) run in parallel.
Half maximal effective concentration (EC50) values were determined from sigmoidal 4PL fittings from the resulting dose-response curves in GraphPad Prism.

[4] = formulation F3, drug/lipid ratio 0.10, 1 h
[5] = formulation F3, drug/lipid ratio 0.10, 3 h

Structure (SMILES) | Remote loading efficiency 1 h (%) [1, 4] | Remote loading efficiency 3 h (%) [1, 5] | Remote loading efficiency 1 h (%) ([1]; formulation F3, drug/lipid ratio 0.25, 1 h) | Remote loading efficiency 3 h (%) ([1]; formulation F3, drug/lipid ratio 0.25, 3 h) | Remote loading efficiency 1 h (%) ([1]; formulation F3, drug/lipid ratio 0.50, 1 h) | Remote loading efficiency 3 h (%) ([1]; formulation F3, drug/lipid ratio 0.50, 3 h) | TLR7 agonist activity (NF-κB induction) [2] | EC50 [3] [nM] | Potency in the RAW-Blue cell assay [3]
CCCCc1nc2c(N)nc3ccccc3c2n1Cc1ccc(CNC(=O)[C@@H](N)CC(N)=O)cc1 [MK135, (S)-2-amino-N-(4-((4-amino-2-butyl-1H-imidazo [4,5-c]quinolin-1-yl)methyl)benzyl)succinamide] | 85.9 (4.7) % | 86.4 (5.1) % | 55.5 (5.7) % | 65.0 (7.7) % | 19.5 (0.1) % | 23% and 23.3 (0.3) % | the lowest potency of all derivatives | 420 | 
CCCCc1nc2c(N)nc3ccccc3c2n1Cc1ccc(CNC(=O)[C@@H](N)C(C)C)cc1 [MK145, (S)-2-amino-N-(4-((4-amino-2-butyl-1H-imidazo[4,5-c]quinolin-1-yl)methyl)benzyl)-3-methylbutanamide] | 97.2 (4.0) % | 92.4 (3.9) % |  |  |  |  | potencies that were higher or comparable to that of R848 | 30 | the most potent compounds
CCCCc1nc2c(N)nc3ccccc3c2n1Cc1ccc(CNC(=O)[C@H](C)N)cc1 [MK137, (S)-2-amino-N-(4-((4-amino-2-butyl-1H-imidazo[4,5-c]quinolin-1-yl)methyl)benzyl)propanamide] | 98.1 (5.2) % | 99.1 (1.8) % |  |  |  |  | potencies that were higher or comparable to that of R848 | 40 | greater potencies than R848
CCCCc1nc2c(N)nc3ccccc3c2n1Cc1ccc(CNC(=O)[C@@H](N)CCC(N)=O)cc1 [MK136, (S)-2-amino-N-(4-((4-amino-2-butyl-1H-imidazo[4,5-c]quinolin-1-yl)methyl)benzyl)pentanediamide] | 2.0 (0.2) % | 3.1 (0.4) % |  |  |  |  | the lowest potency of all derivatives | 740 | 
CCCCc1nc2c(N)nc3ccccc3c2n1Cc1ccc(CNC(=O)CN)cc1 [MK139, 2-amino-N-(4-((4-amino-2-butyl-1H-imidazo[4,5-c]quinolin-1-yl)methyl)benzyl)acetamide] | 84.7 (17.4) % | 90.6 (1.6) % |  |  |  |  | potencies that were higher or comparable to that of R848 | 340 | 
CCCCc1nc2c(N)nc3ccccc3c2n1Cc1ccc(CNC(=O)[C@@H]2CCCN2)cc1 [MK140, (S)—N-(4-((4-amino-2-butyl-1H-imidazo[4,5-c]quinolin-1-yl)methyl)benzyl)pyrrolidine-2-carboxamide] | 93.6 (0.1) % | 98.3 (3.4) % |  |  |  |  | potencies that were higher or comparable to that of R848 | 50 | greater potencies than R848
CCCCc1nc2c(N)nc3ccccc3c2n1Cc1ccc(CNC(=O)[C@@H](N)[C@@H](C)CC)cc1 [MK146, (2S,3S)-2-amino-N-(4-((4-amino-2-butyl-1H-imidazo[4,5-c]quinolin-1-yl)methyl)benzyl)-3-methylpentanamide] | 94.1 (2.9) % | 88.4 (1.5) % |  |  |  |  | potencies that were higher or comparable to that of R848 | 40 | greater potencies than R848
